From ChEMBL document CHEMBL6074667, “Discovery and Optimization of First-in-Class Molecular Glue Degraders of the WIZ Transcription Factor for Fetal Hemoglobin Induction to Treat Sickle Cell Disease” (J Med Chem, 2024)

Molecular target: T1, Protein cereblon/Protein Wiz (Homo sapiens, UniProt Q96SW2+O95785)
Test: Molecular glue activity at CRBN/HiBiT-tagged WIZ (unknown origin) expressed in HEK293T cells assessed as induction of WIZ degradation incubated for 18 hrs by Nano-Glo HiBiT-Lytic reagent based luminescence plate reader analysis
Format: cell-based
Target sequence in this assay (Q96SW2 whole entry): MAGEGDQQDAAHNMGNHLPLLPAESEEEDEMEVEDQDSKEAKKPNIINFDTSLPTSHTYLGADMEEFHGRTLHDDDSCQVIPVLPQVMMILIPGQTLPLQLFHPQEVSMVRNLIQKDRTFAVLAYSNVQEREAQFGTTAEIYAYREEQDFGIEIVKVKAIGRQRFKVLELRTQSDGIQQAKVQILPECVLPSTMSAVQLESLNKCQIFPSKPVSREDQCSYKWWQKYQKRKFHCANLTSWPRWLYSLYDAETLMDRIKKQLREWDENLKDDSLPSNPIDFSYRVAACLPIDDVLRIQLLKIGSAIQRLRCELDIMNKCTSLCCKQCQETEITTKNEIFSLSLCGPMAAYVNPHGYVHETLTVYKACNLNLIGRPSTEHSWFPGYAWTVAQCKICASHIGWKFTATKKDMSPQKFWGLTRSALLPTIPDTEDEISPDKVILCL
Target sequence in this assay (O95785 whole entry): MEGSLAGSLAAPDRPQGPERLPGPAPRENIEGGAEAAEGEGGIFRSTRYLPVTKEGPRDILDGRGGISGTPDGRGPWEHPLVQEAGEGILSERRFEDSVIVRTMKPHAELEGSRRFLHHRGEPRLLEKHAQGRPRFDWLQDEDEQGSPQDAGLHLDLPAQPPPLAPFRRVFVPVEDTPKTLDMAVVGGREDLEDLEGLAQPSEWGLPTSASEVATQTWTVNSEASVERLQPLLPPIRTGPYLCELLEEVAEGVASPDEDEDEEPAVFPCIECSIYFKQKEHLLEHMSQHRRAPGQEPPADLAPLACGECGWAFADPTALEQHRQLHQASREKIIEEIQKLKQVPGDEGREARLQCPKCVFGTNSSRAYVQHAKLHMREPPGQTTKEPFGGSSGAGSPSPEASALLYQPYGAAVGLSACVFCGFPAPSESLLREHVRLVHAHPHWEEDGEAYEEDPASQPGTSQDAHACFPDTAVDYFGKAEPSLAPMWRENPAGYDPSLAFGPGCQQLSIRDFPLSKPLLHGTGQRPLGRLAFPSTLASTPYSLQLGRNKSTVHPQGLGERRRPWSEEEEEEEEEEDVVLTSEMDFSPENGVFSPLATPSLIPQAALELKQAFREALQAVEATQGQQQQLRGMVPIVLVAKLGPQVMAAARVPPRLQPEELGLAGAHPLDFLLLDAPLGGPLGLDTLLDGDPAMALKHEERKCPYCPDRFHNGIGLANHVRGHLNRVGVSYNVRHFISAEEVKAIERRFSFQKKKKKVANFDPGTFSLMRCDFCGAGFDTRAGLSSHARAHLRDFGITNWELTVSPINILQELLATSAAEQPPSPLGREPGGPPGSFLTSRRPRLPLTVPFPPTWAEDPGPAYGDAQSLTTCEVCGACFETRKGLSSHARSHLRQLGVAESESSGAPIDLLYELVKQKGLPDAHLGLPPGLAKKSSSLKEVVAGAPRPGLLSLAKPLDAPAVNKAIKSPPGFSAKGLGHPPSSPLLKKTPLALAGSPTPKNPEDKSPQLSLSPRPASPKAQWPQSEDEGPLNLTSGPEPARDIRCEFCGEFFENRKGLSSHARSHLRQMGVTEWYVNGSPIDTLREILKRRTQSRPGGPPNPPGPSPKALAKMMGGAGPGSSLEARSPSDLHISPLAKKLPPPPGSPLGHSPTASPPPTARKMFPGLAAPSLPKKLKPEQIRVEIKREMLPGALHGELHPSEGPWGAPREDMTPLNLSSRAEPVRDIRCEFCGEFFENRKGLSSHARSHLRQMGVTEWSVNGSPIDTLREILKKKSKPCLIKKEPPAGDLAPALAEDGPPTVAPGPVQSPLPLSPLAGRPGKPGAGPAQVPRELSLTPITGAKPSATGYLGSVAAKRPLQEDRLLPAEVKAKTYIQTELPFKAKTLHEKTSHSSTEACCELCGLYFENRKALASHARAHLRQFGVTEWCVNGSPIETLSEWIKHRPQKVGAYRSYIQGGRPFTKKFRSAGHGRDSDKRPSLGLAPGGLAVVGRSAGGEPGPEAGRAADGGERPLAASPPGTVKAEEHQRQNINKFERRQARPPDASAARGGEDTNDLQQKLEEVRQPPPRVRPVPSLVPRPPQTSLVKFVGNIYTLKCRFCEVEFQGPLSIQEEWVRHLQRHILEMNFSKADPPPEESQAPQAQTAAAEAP

Structure (SMILES) | DC50
CCN1C[C@@H](C)C[C@@H](Oc2ccc3c(c2)CN(C2CCC(=O)NC2=O)C3=O)C1 (mixture of isomers) | > 25 µM
CCN1CCC[C@H](Oc2ccc3c(c2)CN(C2CCC(=O)NC2=O)C3=O)C1 (stereo partly specified) | > 25 µM

Molecular target: T1, Protein cereblon/Protein Wiz
Test: Molecular glue activity at CRBN/HiBiT-tagged WIZ (unknown origin) expressed in HEK293T cells assessed as induction of WIZ degradation incubated for 18 hrs by Nano-Glo HiBiT-Lytic reagent based luminescence plate reader analysis relative to control
Format: cell-based
Design: concentration or dose not given beside the values
Target sequence in this assay (O95785 whole entry, looked up): as the sequence (O95785 whole entry) above
Target sequence in this assay (Q96SW2 whole entry, looked up): as the sequence (Q96SW2 whole entry) above

Structure (SMILES) | Activity
CCN1C[C@@H](C)C[C@@H](Oc2ccc3c(c2)CN(C2CCC(=O)NC2=O)C3=O)C1 (mixture of isomers) | 42%
CCN1CCC[C@H](Oc2ccc3c(c2)CN(C2CCC(=O)NC2=O)C3=O)C1 (stereo partly specified) | 12%

Molecular target: T2, Protein cereblon/Sal-like protein 4 (Homo sapiens, UniProt Q96SW2+Q9UJQ4)
Test: Molecular glue activity at CRBN/HiBiT-tagged SALL4 (unknown origin) expressed in human GripTite 293 MSR cells assessed as induction of SALL4 degradation incubated for 20 hrs by Nano-Glo HiBiT-Lytic reagent based luminescence plate reader analysis
Format: cell-based
Target sequence in this assay (Q96SW2 whole entry): as above
Target sequence in this assay (Q9UJQ4 whole entry): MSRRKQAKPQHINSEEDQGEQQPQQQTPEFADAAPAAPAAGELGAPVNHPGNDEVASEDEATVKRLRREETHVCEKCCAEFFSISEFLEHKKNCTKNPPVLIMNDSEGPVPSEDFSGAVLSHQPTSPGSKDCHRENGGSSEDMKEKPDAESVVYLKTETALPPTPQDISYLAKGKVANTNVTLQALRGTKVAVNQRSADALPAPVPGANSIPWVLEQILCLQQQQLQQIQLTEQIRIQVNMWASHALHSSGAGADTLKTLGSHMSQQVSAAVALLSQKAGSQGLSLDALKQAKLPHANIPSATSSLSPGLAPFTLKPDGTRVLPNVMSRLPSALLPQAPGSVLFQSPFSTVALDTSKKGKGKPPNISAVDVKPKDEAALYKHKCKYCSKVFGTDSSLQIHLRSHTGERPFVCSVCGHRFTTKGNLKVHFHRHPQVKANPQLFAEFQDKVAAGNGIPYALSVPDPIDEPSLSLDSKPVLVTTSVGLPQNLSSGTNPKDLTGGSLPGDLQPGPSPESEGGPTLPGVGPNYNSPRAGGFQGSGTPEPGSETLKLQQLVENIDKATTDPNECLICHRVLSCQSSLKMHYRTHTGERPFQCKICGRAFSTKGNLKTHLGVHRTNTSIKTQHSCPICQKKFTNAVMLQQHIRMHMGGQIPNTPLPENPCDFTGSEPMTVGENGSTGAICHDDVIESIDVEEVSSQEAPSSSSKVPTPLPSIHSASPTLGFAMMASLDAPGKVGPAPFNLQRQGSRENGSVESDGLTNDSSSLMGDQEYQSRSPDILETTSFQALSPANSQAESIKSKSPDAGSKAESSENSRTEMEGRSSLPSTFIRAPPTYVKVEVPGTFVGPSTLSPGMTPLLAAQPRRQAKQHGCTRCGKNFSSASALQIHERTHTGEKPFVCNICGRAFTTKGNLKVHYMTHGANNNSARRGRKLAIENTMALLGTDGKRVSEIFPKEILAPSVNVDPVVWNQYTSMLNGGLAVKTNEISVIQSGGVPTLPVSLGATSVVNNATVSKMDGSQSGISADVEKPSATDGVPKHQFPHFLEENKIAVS

Structure (SMILES) | DC50
CCN1C[C@@H](C)C[C@@H](Oc2ccc3c(c2)CN(C2CCC(=O)NC2=O)C3=O)C1 (mixture of isomers) | > 50 µM
CCN1CCC[C@H](Oc2ccc3c(c2)CN(C2CCC(=O)NC2=O)C3=O)C1 (stereo partly specified) | > 50 µM

Molecular target: T2, Protein cereblon/Sal-like protein 4
Test: Molecular glue activity at CRBN/HiBiT-tagged SALL4 (unknown origin) expressed in human GripTite 293 MSR cells assessed as induction of SALL4 degradation incubated for 20 hrs by Nano-Glo HiBiT-Lytic reagent based luminescence plate reader analysis relative to control
Format: cell-based
Design: concentration or dose not given beside the values
Target sequence in this assay (Q96SW2 whole entry, looked up): as the sequence (Q96SW2 whole entry) above
Target sequence in this assay (Q9UJQ4 whole entry, looked up): as the sequence (Q9UJQ4 whole entry) above

Structure (SMILES) | Activity
CCN1C[C@@H](C)C[C@@H](Oc2ccc3c(c2)CN(C2CCC(=O)NC2=O)C3=O)C1 (mixture of isomers) | 32%
CCN1CCC[C@H](Oc2ccc3c(c2)CN(C2CCC(=O)NC2=O)C3=O)C1 (stereo partly specified) | 27%

Molecular target: T3, Cereblon/Ikaros (Homo sapiens, UniProt Q96SW2+Q13422)
T3 sequence (Q96SW2 whole entry): as the sequence (Q96SW2 whole entry) above
T3 sequence (Q13422 whole entry): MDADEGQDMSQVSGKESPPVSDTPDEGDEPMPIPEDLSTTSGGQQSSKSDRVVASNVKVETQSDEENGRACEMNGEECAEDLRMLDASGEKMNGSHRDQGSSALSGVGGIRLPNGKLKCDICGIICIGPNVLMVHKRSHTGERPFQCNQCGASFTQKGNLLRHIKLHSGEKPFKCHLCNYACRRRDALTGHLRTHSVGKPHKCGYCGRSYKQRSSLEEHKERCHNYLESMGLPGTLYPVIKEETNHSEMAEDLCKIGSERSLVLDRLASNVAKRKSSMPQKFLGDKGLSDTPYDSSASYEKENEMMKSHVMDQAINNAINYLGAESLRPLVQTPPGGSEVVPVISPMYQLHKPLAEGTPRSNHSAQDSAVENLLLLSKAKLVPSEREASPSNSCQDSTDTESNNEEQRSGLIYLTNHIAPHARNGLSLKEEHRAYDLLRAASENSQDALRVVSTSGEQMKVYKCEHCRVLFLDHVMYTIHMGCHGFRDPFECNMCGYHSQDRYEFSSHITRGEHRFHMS
Test: Molecular glue activity at CRBN/HiBiT-tagged IKZF1 (unknown origin) expressed in human GripTite 293 MSR cells assessed as induction of […] incubated for 20 hrs by Nano-Glo HiBiT-Lytic reagent based luminescence plate reader analysis
Format: cell-based

Structure (SMILES) | DC50
CCN1C[C@@H](C)C[C@@H](Oc2ccc3c(c2)CN(C2CCC(=O)NC2=O)C3=O)C1 (mixture of isomers) | > 50 µM
CCN1CCC[C@H](Oc2ccc3c(c2)CN(C2CCC(=O)NC2=O)C3=O)C1 (stereo partly specified) | > 50 µM

Molecular target: T3, Cereblon/Ikaros
Test: Molecular glue activity at CRBN/HiBiT-tagged IKZF1 (unknown origin) expressed in human GripTite 293 MSR cells assessed as induction of […] incubated for 20 hrs by Nano-Glo HiBiT-Lytic reagent based luminescence plate reader analysis relative to control
Format: cell-based
Design: concentration or dose not given beside the values

Structure (SMILES) | Activity
CCN1C[C@@H](C)C[C@@H](Oc2ccc3c(c2)CN(C2CCC(=O)NC2=O)C3=O)C1 (mixture of isomers) | < 10%
CCN1CCC[C@H](Oc2ccc3c(c2)CN(C2CCC(=O)NC2=O)C3=O)C1 (stereo partly specified) | < 10%

Molecular target: T4, Protein cereblon/Eukaryotic peptide chain release factor GTP-binding subunit ERF3A (Homo sapiens, UniProt Q96SW2+P15170)
Test: Molecular glue activity at CRBN/HiBiT-tagged GSPT1 (unknown origin) expressed in human GripTite 293 MSR cells assessed as induction of GSPT1 degradation incubated for 20 hrs by Nano-Glo HiBiT-Lytic reagent based luminescence plate reader analysis
Format: cell-based
Target sequence in this assay (Q96SW2 whole entry): as the sequence (Q96SW2 whole entry) above
Target sequence in this assay (P15170 whole entry): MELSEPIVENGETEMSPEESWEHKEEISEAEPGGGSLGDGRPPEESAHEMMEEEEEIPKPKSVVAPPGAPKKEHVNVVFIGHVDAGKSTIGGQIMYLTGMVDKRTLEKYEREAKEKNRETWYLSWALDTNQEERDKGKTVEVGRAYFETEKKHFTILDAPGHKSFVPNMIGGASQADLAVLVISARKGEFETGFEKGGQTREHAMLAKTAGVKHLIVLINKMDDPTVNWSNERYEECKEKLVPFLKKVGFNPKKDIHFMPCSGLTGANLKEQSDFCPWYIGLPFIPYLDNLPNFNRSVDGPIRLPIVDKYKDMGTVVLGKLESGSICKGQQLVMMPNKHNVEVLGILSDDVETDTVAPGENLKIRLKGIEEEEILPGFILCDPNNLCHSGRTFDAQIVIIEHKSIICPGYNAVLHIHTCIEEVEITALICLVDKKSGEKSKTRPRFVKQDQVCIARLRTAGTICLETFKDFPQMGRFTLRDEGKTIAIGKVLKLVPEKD

Structure (SMILES) | DC50
CCN1C[C@@H](C)C[C@@H](Oc2ccc3c(c2)CN(C2CCC(=O)NC2=O)C3=O)C1 (mixture of isomers) | > 50 µM
CCN1CCC[C@H](Oc2ccc3c(c2)CN(C2CCC(=O)NC2=O)C3=O)C1 (stereo partly specified) | > 50 µM

Molecular target: T4, Protein cereblon/Eukaryotic peptide chain release factor GTP-binding subunit ERF3A
Test: Molecular glue activity at CRBN/HiBiT-tagged GSPT1 (unknown origin) expressed in human GripTite 293 MSR cells assessed as induction of GSPT1 degradation incubated for 20 hrs by Nano-Glo HiBiT-Lytic reagent based luminescence plate reader analysis relative to control
Format: cell-based
Design: concentration or dose not given beside the values
Target sequence in this assay (P15170 whole entry, looked up): as the sequence (P15170 whole entry) above
Target sequence in this assay (Q96SW2 whole entry, looked up): as the sequence (Q96SW2 whole entry) above

Structure (SMILES) | Activity
CCN1C[C@@H](C)C[C@@H](Oc2ccc3c(c2)CN(C2CCC(=O)NC2=O)C3=O)C1 (mixture of isomers) | < 10%
CCN1CCC[C@H](Oc2ccc3c(c2)CN(C2CCC(=O)NC2=O)C3=O)C1 (stereo partly specified) | < 10%
